Experimental findings from patent US8207180B2, “Tricyclic indoles and (4,5-dihydro) indoles” (Nerviano Medical Sciences S.R.L., priority 2006, dated 2012) are described below.

The structures appear in SMILES notation. Counter-ions that a name gives are not always drawn.

The target of one experiment is Cdc7/Dbf4 (Homo sapiens, UniProt O00311). In words: Inhibition assay of Cdc7/Dbf4 activity (Dowex resin capture, 33P-ATP, MCM2 substrate). In kind it is biochemical. The conditions noted are these: MCM2 6 μM, ATP 2 μM, enzyme 2 nM, 60 min rt. How it is done: Inhibition Assay of Cdc7 Activity
Cdc7/Dbf4, sequence (O00311 whole entry): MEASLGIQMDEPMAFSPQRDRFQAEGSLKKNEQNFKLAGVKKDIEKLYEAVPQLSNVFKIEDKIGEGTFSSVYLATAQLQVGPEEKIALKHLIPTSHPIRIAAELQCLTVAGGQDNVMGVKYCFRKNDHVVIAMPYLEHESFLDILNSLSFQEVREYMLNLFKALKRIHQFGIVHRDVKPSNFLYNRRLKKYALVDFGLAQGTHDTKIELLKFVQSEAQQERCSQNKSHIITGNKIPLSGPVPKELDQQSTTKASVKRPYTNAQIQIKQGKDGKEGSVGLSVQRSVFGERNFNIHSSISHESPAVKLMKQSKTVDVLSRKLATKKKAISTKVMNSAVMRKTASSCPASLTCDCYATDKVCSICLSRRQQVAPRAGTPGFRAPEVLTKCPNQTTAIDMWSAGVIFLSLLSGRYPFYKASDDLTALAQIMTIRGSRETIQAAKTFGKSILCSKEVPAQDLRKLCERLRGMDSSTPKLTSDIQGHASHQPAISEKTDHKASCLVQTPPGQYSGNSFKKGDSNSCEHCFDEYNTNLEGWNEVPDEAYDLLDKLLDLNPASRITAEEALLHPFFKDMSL
Cdc7/Dbf4, sequence (Q9UBU7 whole entry partner): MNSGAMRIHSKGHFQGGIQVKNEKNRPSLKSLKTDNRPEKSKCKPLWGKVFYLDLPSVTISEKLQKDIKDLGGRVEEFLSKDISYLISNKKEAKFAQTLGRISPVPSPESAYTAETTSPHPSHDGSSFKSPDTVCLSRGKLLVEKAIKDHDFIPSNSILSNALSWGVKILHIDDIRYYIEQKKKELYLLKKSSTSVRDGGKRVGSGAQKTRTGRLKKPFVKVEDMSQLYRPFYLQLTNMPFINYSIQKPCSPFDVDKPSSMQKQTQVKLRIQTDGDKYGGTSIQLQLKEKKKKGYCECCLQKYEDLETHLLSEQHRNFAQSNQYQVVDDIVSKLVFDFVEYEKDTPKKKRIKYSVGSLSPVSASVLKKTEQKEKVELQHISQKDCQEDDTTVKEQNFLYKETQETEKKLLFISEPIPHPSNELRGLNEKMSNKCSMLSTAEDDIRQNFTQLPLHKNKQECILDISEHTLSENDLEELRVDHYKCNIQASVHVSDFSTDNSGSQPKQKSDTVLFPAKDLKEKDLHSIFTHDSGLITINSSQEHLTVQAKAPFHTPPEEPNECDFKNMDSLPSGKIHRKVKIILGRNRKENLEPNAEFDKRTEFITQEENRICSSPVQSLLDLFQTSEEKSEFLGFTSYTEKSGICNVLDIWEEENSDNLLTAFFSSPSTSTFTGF
The inhibiting activity of putative Cdc7 inhibitors and the potency of selected compounds is determined through a method of assay based on the use of Dowex resin capture technology.
The assay consists of the transfer of radioactivity labeled phosphate moiety by the kinase to an acceptor substrate. The resulting 33P-labeled product is separated from unreacted tracer, transferred into a scintillation cocktail and light emitted is measured in a scintillation counter.
The inhibition assay of Cdc7/Dbf4 activity is performed according to the following protocol.
The MCM2 substrate is trans-phosphorylated by the Cdc7/Dbf4 complex in the presence of ATP traced with γ^33-ATP. The reaction is stopped by addition of Dowex resin in the presence of formic acid. Dowex resin particles capture unreacted γ^33-ATP and drag it to the bottom of the well while ^33P phosphorylated MCM2 substrate remains in solution. The supernatant is collected, transferred into Optiplate plates and the extent of substrate phosphorylation is evaluated by β counting.
The inhibition assay of Cdc7/Dbf4 activity was performed in 96 wells plate according to the following protocol.
To each well of the plate were added: • 10 μl test compound (10 increasing concentrations in the nM to uM range to generate a dose-response curve). The solvent for test compounds contained 3% DMSO. (final concentration 1%) • 10 μl substrate MCM2 (6 μM final concentration), a mixture of cold ATP (2 μM final concentration) and radioactive ATP (1/5000 molar ratio with cold ATP). • 10 μl enzyme (Cdc7/Dbf4, 2 nM final concentration) that started the reaction. The buffer of the reaction consisted in 50 mM HEPES pH 7.9 containing 15 mM MgCl2, 2 mM DTT, 3 uM NaVO3, 2 mM glycerophosphate and 0.2 mg/ml BSA. • After incubation for 60 minutes at room temperature, the reaction was stopped by adding to each well 150 μl of Dowex resin in the presence of 150 mM formic acid. After other 60 min incubation, 50 μl of suspension were withdrawn and transferred into 96-well OPTIPLATEs containing 150 μl of MicroScint 40 (Packard); after 5-10 minutes shaking the plates were read for 1 min in a Packard TOP-Count radioactivity reader.
IC50 determination: inhibitors were tested at different concentrations ranging from 0.0005 to 10 μIM. Experimental data were analyzed by the computer program Assay Explorer using the four parameter logistic equation: y=bottom+(top−bottom)/(1+10^((log IC50−x)*slope)) where x is the logarithm of the inhibitor concentration, y is the response; y starts at bottom and goes to top with a sigmoid shape.
Consider `Cn1cc(C(N)=O)c2ccc3n[nH]cc3c21` [B3, 1-Methyl-1,7-dihydro-1,6,7-triaza-as-indacene-3-carboxylic acid amide], for which the IC50 (as a rule, the point on the concentration scale where inhibition reaches its midpoint) is less than 100 nM. Same read-out and setting: with `NC(=O)c1c(-c2ccc(Br)cc2)[nH]c2c1ccc1cnccc12` [G6, 2-(4-Bromo-phenyl)-1H-pyrrolo[2,3-f]isoquinoline-3-carboxylic acid amide] the figure was less than 100 nM; with `Cn1c(-c2ccccc2)c(C(N)=O)c2ccc3n[nH]cc3c21` [C2, 1-Methyl-2-phenyl-1,7-dihydro-1,6,7-triaza-as-indacene-3-carboxylic acid amide], less than 100 nM; with `Cn1c2c(c(C(N)=O)c1-c1ccccc1)CCc1cnc(N)nc1-2` [N4, 8-Amino-1-methyl-2-phenyl-4,5-dihydro-1H-1,7,9-triaza-cyclopenta[a]naphthalene-3-carboxylic acid amide], less than 1000 nM.

`NC(=O)c1c(-c2ccccc2)[nH]c2c1ccc1cnccc12` [G3, 2-Phenyl-1H-pyrrolo[2,3-f]isoquinoline-3-carboxylic acid amide] displayed a half-inhibitory concentration (IC50) of less than 100 nM. The same measure, in the same setting: the result for `O=Cc1c(-c2ccc(N3CCOCC3)cc2)[nH]c2c1ccc1cnccc12` [G7, 2-(4-Morpholin-4-yl-phenyl)-1H-pyrrolo[2,3-f]isoquinoline-3-carbaldehyde] reads less than 1000 nM; that for `Cn1cc(C(=O)O)c2ccc3[nH]ncc3c21` [B2, 1-Methyl-1,6-dihydro-1,6,7-triaza-as-indacene-3-carboxylic acid], less than 100 nM.

With `NC(=O)c1c(-c2ccncc2)[nH]c2c1ccc1cnccc12` [H3, 2-Pyridin-4-yl-1H-pyrrolo[2,3-f]isoquinoline-3-carboxylic acid amide], the 50% inhibitory concentration (IC50) is less than 100 nM. `Cc1ccccc1-c1c(C(N)=O)c2c(n1C)-c1ccncc1CC2` [F5, 1-Methyl-2-o-tolyl-4,5-dihydro-1H-pyrrolo[2,3-f]isoquinoline-3-carboxylic acid amide] displayed a half-maximal inhibitory concentration (IC50) of less than 100 nM. With `O=C(O)c1c(-c2ccc(Br)cc2)[nH]c2c1ccc1cnccc12` [G5, 2-(4-Bromo-phenyl)-1H-pyrrolo[2,3-f]isoquinoline-3-carboxylic acid], the half-inhibitory concentration (IC50) is less than 100 nM.

As to `O=C(O)c1cn(CC(F)(F)F)c2c1CCc1cnccc1-2` [E7, 1-(2,2,2-Trifluoroethyl)-4,5-dihydro-1H-pyrrolo[2,3-f]isoquinoline-3-carboxylic acid], the half-inhibitory concentration (IC50) was less than 1000 nM. With `Cn1c(-c2ccccc2)c(C(N)=O)c2ccc3cnc(N)nc3c21` [N10, 8-Amino-1-methyl-2-phenyl-1H-1,7,9-triaza-cyclopenta[a]naphthalene-3-carboxylic acid amide], the IC50 was less than 100 nM. Turning to `NC(=O)c1c[nH]c2c1CCc1cnccc1-2` [E10, 4,5-Dihydro-1H-pyrrolo[2,3-f]isoquinoline-3-carboxylic acid amide], the half-maximal inhibitory concentration (IC50) was less than 1000 nM. The compound `NC(=O)c1c(-c2ccccc2)[nH]c2c1ccc1cnc(N)nc12` [N9, 8-Amino-2-phenyl-1H-1,7,9-triaza-cyclopenta[a]naphthalene-3-carboxylic acid amide] returned a 50% inhibitory concentration (IC50) of less than 100 nM. Consider `O=C(O)c1cc2c([nH]1)-c1ccncc1CC2` [L2, 4,5-Dihydro-1H-pyrrolo[2,3-f]isoquinoline-2-carboxylic acid], for which the IC50 is less than 1000 nM. With `Cn1c(Cl)c(C(N)=O)c2ccc3[nH]ncc3c21` [C1, 2-Chloro-1-methyl-1,6-dihydro-1,6,7-triaza-as-indacene-3-carboxylic acid amide], the concentration for half-maximal inhibition (IC50) was less than 100 nM. Take `O=Cc1c(-c2ccncc2)[nH]c2c1ccc1cnccc12` [H1, 2-Pyridin-4-yl-1H-pyrrolo[2,3-f]isoquinoline-3-carbaldehyde]: the IC50 was less than 100 nM.

Regarding `CCOC(=O)c1c(Br)[nH]c2c1CCc1cnccc1-2` [F1, 2-Bromo-4,5-dihydro-1H-pyrrolo[2,3-f]isoquinoline-3-carboxylic acid ethyl ester hydrobromide], the IC50 was less than 1000 nM.

On to `O=C(O)c1c[nH]c2c1CCc1cnccc1-2` [E6, 4,5-Dihydro-1H-pyrrolo[2,3-f]isoquinoline-3-carboxylic acid], for which the IC50 is less than 1000 nM.

For the next experiment, the target named is AKT-1 (Homo sapiens, UniProt P31749). The experiment is described as follows: AKT kinase inhibition assay: Dowex technique (AKT1, Aktide substrate). The format is biochemical. The conditions noted are these: AKT1 5 nM, Aktide 30 μM, ATP 132 μM, 60 min rt. An excerpt: Method for AKT Kinase Inhibition Assay: Dowex Technique
AKT-1, sequence (P31749 whole entry): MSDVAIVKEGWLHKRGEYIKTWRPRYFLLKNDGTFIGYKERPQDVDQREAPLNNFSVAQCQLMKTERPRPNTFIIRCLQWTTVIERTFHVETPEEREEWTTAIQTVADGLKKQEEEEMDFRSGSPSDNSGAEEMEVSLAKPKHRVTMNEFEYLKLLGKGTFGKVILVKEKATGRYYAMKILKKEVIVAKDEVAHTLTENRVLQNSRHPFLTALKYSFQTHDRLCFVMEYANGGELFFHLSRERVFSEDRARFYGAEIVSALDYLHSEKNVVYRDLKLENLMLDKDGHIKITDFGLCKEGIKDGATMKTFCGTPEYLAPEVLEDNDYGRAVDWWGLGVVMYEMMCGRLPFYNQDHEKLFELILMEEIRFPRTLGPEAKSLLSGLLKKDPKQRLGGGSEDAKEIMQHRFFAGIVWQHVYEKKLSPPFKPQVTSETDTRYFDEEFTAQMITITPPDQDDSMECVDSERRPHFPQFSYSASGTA
General Principle for Kinase Inhibition Assays
Specific peptide or protein substrates are trans-phosphorylated by their specific serine -threonine or tyrosine kinase, in the presence of ATP traced with ^33Pγ-ATP, and in the presence of their own optimal buffer and cofactors.
At the end of the phosphorylation reaction, more than 98% cold ATP and radioactive ATP is captured by an excess of the ion exchange dowex resin; the resin then settles down to the bottom of the reaction plate by gravity.
Supernatant, containing the phosphorylated substrate, is subsequently withdrawn and transferred into a counting plate, then evaluated by β-counting.
• TRIS 50 mM, pH 7.5 • MgCl2 10 mM • DTT 1 mM • NaVO3 […] • BSA 0.2 mg/ml • Assay conditions (final concentrations) for AKT1 • Enzyme concentration (AKT1)=5 nM • Substrate concentration (Aktide, 14 residues peptide, from PRIMM)=30 μM • ATP=132 μM • ^33P-γ-ATP=0.88 nM Robotized Dowex Assay
The “test” mixture consisted of: • 1) 3× Enzyme mix (done in Kinase Buffer 3×), 5 μl/well • 2) 3× substrate and ATP mix (done in DDH2O), together with ^33P-γ-ATP, 5 μl/well • 3) 3× test compounds (diluted into DDH2O-3% DMSO)-5 μl/well Dilution of Compounds
Test compounds are received as 100% DMSO solution at the indicated concentrations: • i—for % inhibition studies, individual dilution plates at 1 mM, 100 μM and 10 μM are prepared in 100% DMSO, then diluted at a 3× concentration (30, 3 and 0.3 μM) in DDH2O, 3% DMSO. A Multimek 96 (Beckman) is used for dilutions and compound pipetting into the test plates • ii—for IC50 determination, compounds are received as 1 mM, 100% DMSO solutions, plated into the first column of a microtiter plate (A1 to G1), 100 μl.
Well H1 is left empty for the internal standard inhibitor, staurosporine.
A Biomek 2000 (Beckman) is used for serial 1:3 dilutions in water, 3% DMSO, from column A1 to A10 and for all the seven compounds in the plate. In a standard experiment, the highest concentration of all compounds is 30 μM, then diluted in the final test mixture down to 10 μM.
384-well plates, V bottom (test plates) are prepared with 5 μl of the compound dilution (3×) and then placed onto a PlateTrak 12 robotized station (Perkin Elmer; the robot has one 384-tips pipetting head for starting the assay plus one 96-tips head for dispensing the resin) together with one reservoir for the Enzyme mix (3×) and one for the ATP mix (3×).
At the start of the run, the robot aspirates 5 μl of ATP mix, makes an air gap inside the tips (3 μl) and aspirates 5 μl of AKT mix. The following dispensation into the plates allows the kinase reaction to start upon 3 cycles of mixing, done by the robot itself.
The robot incubates the plates for 60 minutes at room temperature, and then stops the reaction by pipetting 70 μl of dowex resin suspension into the reaction mix. Three cycles of mixing are done immediately after the addition of the resin.
Another mixing cycle is performed after all the plates are stopped, this time using normal tips: the plates are then allowed to rest for about one hour in order to maximize ATP capture. At this point, 20 μl of the supernatant are transferred into 384-Optiplates (Perkin-Elmer), with 70 μl of Microscint 40 (Perkin-Elmer); after 5 min of orbital shaking the plates are read on a Perkin-Elmer Top Count radioactivity counter.
Data are analysed by an internally customized version of the SW package “Assay Explorer” that provides either % inhibition for primary assays or sigmoidal fittings of the ten-dilutions curves for IC50 determination, for the secondary assays/hit confirmation routines.
Compound `CC(C)(C)OC(=O)NC[C@H](Cc1ccccc1)NC(=O)c1cn(CC(F)(F)F)c2c1CCc1cnccc1-2` [E12, Tert-Butyl [(2S)-3-phenyl-2-({[1-(2,2,2-trifluoroethyl) -4,5-dihydro-1H-pyrrolo[2,3-f]isoquinolin-3-yl]carbonyl}amino)propyl]carbamate] returned an IC50 of less than 500 nM. Take `NC[C@H](Cc1ccccc1)NC(=O)c1c[nH]c2c1CCc1cnccc1-2` [E15, N-[(1S)-2-Amino-1-benzylethyl]-4,5-dihydro-1H-pyrrolo[2,3-f]isoquinoline-3-carboxamide]: the IC50 is less than 500 nM. As for `NC[C@H](Cc1ccccc1)NC(=O)c1cn(CC(F)(F)F)c2c1CCc1cnccc1-2` [E14, N-[(1S)-2-Amino-1-benzylethyl]-1-(2,2,2-trifluoroethyl)-4,5-dihydro-1H-pyrrolo[2,3-f]isoquinoline-3-carboxamide], the concentration for half-maximal inhibition (IC50) is less than 500 nM. Regarding `NC[C@H](Cc1ccccc1)NC(=O)c1cn(CCO)c2c1CCc1cnccc1-2` [E21, N-[(1S)-2-Amino-1-benzylethyl]-1-(2-hydroxyethyl)-4,5-dihydro-1H-pyrrolo[2,3-f]isoquinoline-3-carboxamide], the IC50 was less than 500 nM. The compound `NC[C@H](Cc1ccccc1)NC(=O)c1cc2c([nH]1)-c1ccncc1CC2` [L6, N-[(1S)-2-Amino-1-benzylethyl]-4,5-dihydro-1H-pyrrolo[2,3-f]isoquinoline-2-carboxamide] had a 50% inhibitory concentration (IC50) of less than 500 nM.

Take `NC[C@H](Cc1ccccc1)NC(=O)c1cc2c(n1CC(F)(F)F)-c1ccncc1CC2` [L9, N-[(1S)-2-Amino-1-benzylethyl]-1-(2,2,2-trifluoroethyl)-4,5-dihydro-1H-pyrrolo[2,3-f]isoquinoline-2-carboxamide]: the 50% inhibitory concentration (IC50) is less than 500 nM.
